Holding throughout (type): cell-based
Experiment [1] deals with P388 cells (mouse leukemia cells). The experiment can be described thus: in vitro antitumor activity test, P388 cells, XTT colorimetry. Particulars: cultured 72 hours. The method in brief:
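Cells from DBA/2 mouse ascites, in RPMI 1640 with 10% FBS and 25 mM HEPES, seeded from a 4×10^4 cells/ml suspension. Equal volume added of compound solutions prepared at 2.0×10^−9 to 2.0×10^−4 M (pre-mixing). After 72 h at 37° C, 5% CO2, growth read by XTT; GI50 (μM) is the concentration giving 50% growth inhibition.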
Background: Tetrazolium assays rely on reduction of a dye to a coloured formazan, in cell work by metabolically active cells.

The test system of experiment [2] is PC-3 cells (human prostate cancer cells). The experiment can be described thus: in vitro antitumor activity test, PC-3 cells, XTT colorimetry. Conditions: PC-3 human prostate cancer cells, cultured 72 hours. Summed up:
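PC-3 human prostate cancer cells, seeded at 2×10^4 cells/ml and allowed to adhere for 24 h, were exposed 72 h at 37° C, 5% CO2 to compound diluted in RPMI 1640 with 10% FBS to 2.0×10^−9 to 2.0×10^−4 M (pre-addition solutions). Growth was measured by XTT colorimetry and GI50 (μM) calculated.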

The subject of experiment [3] is B16F10 cells (mouse melanoma [malignant melanoma] cells). The experiment can be described thus: in vitro antitumor activity test, B16F10 cells, XTT colorimetry. Conditions: B16-F10, cultured 72 hours. Summed up: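 B16F10 mouse melanoma cells were seeded from a 1×10^4 cells/ml suspension and allowed to adhere for 24 h. Compounds in DMSO were diluted in RPMI 1640 with 10% FBS to 2.0×10^−9 to 2.0×10^−4 M and incubated 72 h at 37° C, 5% CO2. XTT colorimetry gave GI50 (μM).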

For experiment [4], the system named is WiDr cells (human colon cancer cells). Put plainly: in vitro antitumor activity test, WiDr cells, XTT colorimetry. Particulars: cultured 72 hours. Summed up: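 Human colon cancer cells in MEM/10% FBS were seeded 3×10^4 cells/ml and allowed to adhere for 24 h, then exposed to compounds prepared at 2.0×10^−9 to 2.0×10^−4 M in RPMI 1640 for 72 h at 37° C, 5% CO2. Growth was read by XTT colorimetry and GI50 (μM) calculated.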

In experiment [5] the test system is A549 cells (human lung cancer cells). Put plainly: in vitro antitumor activity test, A549 cells, XTT colorimetry. Particulars: cultured 72 hours. The method in brief:
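Cells seeded at 2×10^4 cells/ml in MEM + 10% FBS, 25 mM HEPES, kanamycin, allowed to adhere 24 h, then exposed to compounds (DMSO stocks diluted in RPMI 1640; prepared at 2.0×10^−9 to 2.0×10^−4 M) for 72 h at 37 °C, 5% CO2. Growth inhibition read by XTT colorimetry; GI50 (μM) calculated.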

These results are taken from patent US9132130B2, “Purine derivative and antitumor agent using same” (ZENYAKU KOGYO KABUSHIKI KAISHA, priority 2009, dated 2015).

Regarding `COc1ccc(CSc2nc(N(C)OC)c3ncn(C)c3n2)cc1F` [Compound 137, 2-(3-fluoro-4-methoxybenzylsulfanyl)-6-(N-methoxy-N-methylamino)-9-methyl-9H-purine], the GI50 in experiment [1] came to 60 nM; in experiment [2], 60 nM; in experiment [3], 100 nM; in experiment [4], 70 nM; in experiment [5], 50 nM.
Take `CCOc1ccc(CSc2nc(N(C)C)c3ncn(C)c3n2)cc1N` [Compound 140, 2-(3-amino-4-ethoxybenzylsulfanyl)-6-dimethylamino-9-methyl-9H-purine]: the GI50 in experiment [1] worked out at 50 nM; in experiment [2], 110 nM; in experiment [3], 160 nM; in experiment [4] it was 360 nM; in experiment [5], 90 nM.
In the case of `COc1ccc(CSc2nc(-n3cccc3)c3ncn(C)c3n2)cc1N` [Compound 141, 2-(3-amino-4-methoxybenzylsulfanyl)-9-methyl-6-(1-pyrrolyl)-9H-purine], the GI50 in experiment [1] stood at 260 nM; in experiment [2], 470 nM; in experiment [3], 410 nM; in experiment [4] it was 4850 nM; in experiment [5], 370 nM.
Regarding `COc1ccc(CSc2nc(N3CC=CC3)c3ncn(C)c3n2)cc1[N+](=O)[O-]` [Compound 142, 2-(4-methoxy-3-nitrobenzylsulfanyl)-9-methyl-6-(3-pyrrolin-1-yl)-9H-purine], the GI50 was determined as 50 nM in experiment [1]; 100 nM in experiment [2]; 190 nM in experiment [3]; 1150 nM in experiment [4]; 80 nM in experiment [5].
Take `COc1ccc(CSc2nc(N(C)OC)c3ncn(C)c3n2)cc1N` [Compound 145, 2-(3-amino-4-methoxybenzylsulfanyl)-6-(N-methoxy-N-methylamino)-9-methyl-9H-purine]: the 50% growth inhibitory concentration (GI50) in experiment [1] is < 40 nM; in experiment [2], 130 nM; in experiment [3] it was 190 nM; in experiment [4] it was 810 nM; in experiment [5] it was 80 nM.
`COc1ccc(CSc2nc(N3C=COCC3)c3ncn(C)c3n2)cc1` [Compound 147, 6-(2,3-dihydro-[1,4]oxadin-4-yl)-2-(4-methoxybenzylsulfanyl)-9-methyl-9H-purine]: the GI50 stood at 40 nM in experiment [1]; 120 nM in experiment [2]; 80 nM in experiment [3]; 40 nM in experiment [4]; 50 nM in experiment [5].
Turning to `CCc1nc2c(N3C=COCC3)nc(SCc3ccc(OC)cc3)nc2n1C` [Compound 148, 6-(2,3-dihydro-[1,4]oxadin-4-yl)-8-ethyl-2-(4-methoxybenzylsulfanyl)-9-methyl-9H-purine], the GI50 was 90 nM in experiment [1]; 130 nM in experiment [2]; 290 nM in experiment [3]; 130 nM in experiment [4]; 240 nM in experiment [5].
Take `COc1ccc(CSc2nc(N3C=COCC3)c3ncn(C)c3n2)cc1[N+](=O)[O-]` [Compound 149, 6-(2,3-dihydro-[1,4]oxadin-4-yl)-2-(4-methoxy-3-nitrobenzylsulfanyl)-9-methyl-9H-purine]: the GI50 in experiment [1] came to 490 nM; in experiment [2], 530 nM; in experiment [3] it was 1380 nM; in experiment [4], 350 nM; in experiment [5], 470 nM.
On to `COc1ccc(CSc2nc(N3C=COCC3)c3ncn(C)c3n2)cc1N` [Compound 150, 2-(3-amino-4-methoxybenzylsulfanyl)-6-(2,3,-dihydro-[1,4]oxadin-4-yl)-9-methyl-9H-purine], for which the 50% growth inhibitory concentration (GI50) was found to be 110 nM in experiment [1]; 150 nM in experiment [2]; 300 nM in experiment [3]; 780 nM in experiment [4]; 150 nM in experiment [5].
Turning to `CCn1cnc2c(N3C=COCC3)nc(SCc3ccc(OC)c(N)c3)nc21` [Compound 151, 2-(3-amino-4-methoxybenzylsulfanyl)-6-(2,3-dihydro-[1,4]oxadin-4-yl)-9-ethyl-9H-purine], the GI50 in experiment [1] amounted to 570 nM; in experiment [2] it was 1440 nM; in experiment [3] it was 1470 nM; in experiment [4], 3400 nM; in experiment [5], 700 nM.
With `COc1ccc(CSc2nc(N3C=COCC3)c3ncn(C)c3n2)cc1F` [Compound 152, 6-(2,3-dihydro-[1,4]oxadin-4-yl)-2-(3-fluoro-4-methoxybenzylsulfanyl)-9-methyl-9H-purine], the GI50 in experiment [1], in experiment [2], in experiment [3], in experiment [4] and in experiment [5] was < 40 nM throughout.
Turning to `COc1ccc(CSc2nc(N3C=COCC3)c3ncn(C)c3n2)cc1C#N` [Compound 153, 2-(3-cyano-4-methoxybenzylsulfanyl)-6-(2,3-dihydro-[1,4]oxadin-4-yl)-9-methyl-9H-purine], the GI50 in experiment [1], in experiment [2], in experiment [3], in experiment [4] and in experiment [5] was < 40 nM in each case.
Regarding `CCn1cnc2c(N3C=COCC3)nc(SCc3ccc(OC)c(F)c3)nc21` [Compound 154, 6-(2,3-dihydro-[1,4]oxadin-4-yl)-9-ethyl-2-(3-fluoro-4-methoxybenzylsulfanyl)-9H-purine], the GI50 in experiment [1] came out at 90 nM; in experiment [2], 220 nM; in experiment [3], 370 nM; in experiment [4], 170 nM; in experiment [5] it was 100 nM.
On to `CCOc1ccc(CSc2nc(N3C=COCC3)c3ncn(CC)c3n2)cc1[N+](=O)[O-]` [Compound 155, 6-(2,3-dihydro-[1,4]oxadin-4-yl)-9-ethyl-2-(3-nitro-4-ethoxybenzylsulfanyl)-9H-purine], for which the GI50 amounted to 490 nM in experiment [1]; 1500 nM in experiment [2]; 1310 nM in experiment [3]; 940 nM in experiment [4]; 500 nM in experiment [5].
Take `CCOc1ccc(CSc2nc(N3C=COCC3)c3ncn(CC)c3n2)cc1N` [Compound 156, 2-(3-amino-4-ethoxybenzylsulfanyl)-6-(2,3-dihydro-[1,4]oxadin-4-yl)-9-ethyl-9H-purine]: the GI50 in experiment [1] was determined as 740 nM; in experiment [2], 1040 nM; in experiment [3], 1400 nM; in experiment [4] it was 3380 nM; in experiment [5] it was 700 nM.
For `CCc1nc2c(N3C=COCC3)nc(SCc3ccc(OC)c(F)c3)nc2n1C` [Compound 157, 6-(2,3-dihydro[1,4]oxadin-4-yl)-8-ethyl-2-(3-fluoro-4-methoxybenzylsulfanyl)-9-methyl-9H-purine] the same measures were 40 nM, 90 nM, 80 nM, 80 nM and 60 nM.
Turning to `CCc1nc2c(N3C=COCC3)nc(SCc3ccc(OC)cc3)nc2n1CC` [Compound 158, 8,9-diethyl-6-(2,3-dihydro-[1,4]oxadin-4-yl)-2-(4-methoxybenzylsulfanyl)-9H-purine], the GI50 was determined as 240 nM in experiment [1]; 310 nM in experiment [2]; 420 nM in experiment [3]; 350 nM in experiment [4]; 410 nM in experiment [5].
For the molecule `C/C=C/c1nc(SCc2ccc(OC)cc2)nc2c1ncn2C` [Compound 163, 2-(4-methoxybenzylsulfanyl)-9-methyl-6-(1-trans-propenyl)-9H-purine], the GI50 was determined as 280 nM in experiment [1]; 870 nM in experiment [2]; 540 nM in experiment [3]; 510 nM in experiment [4]; 670 nM in experiment [5].

Broadly, the GI50 is the concentration that inhibits growth by half. A low value points to greater sensitivity of the cells.
